Assay results published in article PMC5025856, “A Novel Assay for Screening Inhibitors Targeting HIV Integrase LEDGF/p75 Interaction Based on Ni^2+ Coated Magnetic Agarose Beads” (Scientific Reports, 2016).
Where two headings read alike, the source gives them in different places.

Legend:
[1] = system: cancer xenograft models; set-up: method as in PMID 25093583; conditions: primary screen hit in cancer xenograft models; cited from earlier work
[2] = target: T1, PPI between HIV-1 IN CCD and LEDGF/p75 IBD (Homo sapiens, UniProt O75475); experiment: IN CCD-LEDGF/p75 IBD PPI assay based on Ni-NTA magnetic agarose beads; format: binding
T1 construct: The IN CCD protein used contained HIV IN residues 50–212 fused with an C-terminal His6-tag; a fusion of LEDGF/p75 residues 347–471 with the N-terminal GST-tag; made in house; host or cells: bacterial expression vectors pET28a (IN CCD) and pGEX-4T-1 (IBD)
Experimental: In the assay, GST–tagged LEDGF/p75 IBD (yellow) is mixed with His6-tagged IN CCD (green) at the desired concentrations. After incubation at room temperature, a double-tagged PPI complex with N-terminal GST-tag and C-terminal His6-tag is established between two protein partners. The PPI complex is captured by Ni^2+-coated magnetic beads (red) through His6-tag, followed by the addition of alkaline phosphatase conjugated anti-GST antibody (dark red). Therefore, the product could be measured by the alkaline phosphatase conjugated-coupled enzyme reaction (Fig. 1A).
The IN CCD-LEDGF/p75 IBD interaction assay was developed based on Ni-NTA Magnetic Agarose Beads (BEAVER Nano-technologies Co., Ltd. Suzhou, China). The assay was optimized for use in 96-well nonbinding surface microplates (Corning, New York, USA) in a final volume of 100 μl per well. Briefly, the assay works as follows. Compounds and proteins were diluted to 10× and 5× working solutions in the 1× assay buffer (25 mM Tris-HCl, pH 7.4, 150 mM NaCl, 1 mM MgCl2, 0.05% BSA[v/w]) respectively. Firstly, 10 μl compound dilution, 50 μl 1× buffer, 20 μl each of protein dilutions were pipetted into the wells. The plate was sealed and left to incubate at 200 rpm for 3 h at RT. Secondly, 10 μl of Ni-NTA Magnetic Agarose Beads were added followed by incubating at 900 rpm for 30 min at RT. Thirdly, the wells holding the mixture were placed on a magnetic concentrator, the supernatant was discarded, and the wells were washed 3 times with 200 μl wash buffer (50 mM sodium phosphate, pH 7.4, 150 mM NaCl, 0.005% tween-20[v/v], 20 mM imidazole). Fourthly, the wells were incubated with 100 μl of a 1:4000 solution of mouse anti-GST antibody (Sigma, USA) in antibody dilution buffer (50 mM Sodium Phosphate, pH 7.4, 150 mM NaCl, 0.005% Tween-20[v/v], 0.5%[w/v] BSA) at 900 rpm for 30 min at 37 °C, followed by washing three times. Fifthly, the wells were incubated with 100 μl of a 1:5000 solution of rabbit anti-mouse IgG alkaline phosphatase conjugated antibody (Sigma, USA) in antibody dilution buffer at 900 rpm for 30 min at 37 °C, followed by washing 3 times. Lastly, the color reaction was developed with 100 μl substrate buffer (10 mM diethanolamine, pH 9.8, 0.5 mM MgCl2, 8 mM p-NPP) for 30 min at 37 °C. The absorbance ([…]) of each well was measured in an Enspire multimode reader (PerkinElmer, USA). The reproducibility, signal stability, and robustness of this PPI assay were determined to ensure its compatible for HTS. Furthermore, IL23, an IN CCD-LEDGF/p75 IBD PPI inhibitor, was used to validate the assay efficiency.
In total, 1000 compounds selected at random from ‘The Spectrum Collection’ were purchased from National compound resource center. The library, which is composed of 2,320 compounds in 10 mM DMSO solution, lists primarily FDA-approved human therapeutic drugs, drug-like compounds, and natural products. Each compound was diluted in DMSO to reach a concentration of 300 μM, which was used as the 10× compound stock. In all screening campaigns, the negative control was based on the use of PPI binding mutant controls (single-point mutation) that would prevent the PPI from forming, and the positive control contained 10% (v/v) DMSO only. The negative and positive control with 8 replicates wells each located randomly among the 96 wells of each plate.
The z′ factor, signal-to-noise ratio (S/N), signal-to-background ratio (S/B), signal window (SW), and coefficient of variation (CV) were calculated and then compared with the minimum pass criteria (z′ >0.5, S/N>10, S/B > 3, SW >2, CV < 20%)[39][40][41][42]. The “hits” for PPI assays were classified as compounds that led to more than 60% disruption of a PPI complex. All HTS data were processed using Excel (Microsoft Corp.) and visualized using Prism 5.0 (GraphPad Software).

[3] = target: T2, His6-tagged GST protein (Schistosoma japonicum, UniProt P08515); experiment: Non-specificity counterscreen with His6-GST protein; conditions: dose-response, 10 nM His6-tagged GST protein
T2 construct: made in house; host or cells: bacterial expression vector pGEX-4T-1
Experimental: The false positive compound identified in this HTS may affect the assay by forming hydrogen bonds interaction with His6-tag of IN CCD or forming chelating complexes with Ni^2+-ion covering magnetic beads surface. […] Any compound that interfered with bead or with the His6-tag of double-tagged protein would result in a decreased signal in the counterscreen assay.
A counterscreen was carried out as described above, with the replacement of purified HIV-1 IN CCD and LEDGF/p75 IBD with 10 nM His6-tagged GST protein.

[4] = target: LEDGF/p75 (Homo sapiens, UniProt O75475); experiment: Biolayer interferometry (BLI) binding to LEDGF/p75; conditions: ForteBIO Octet, 1:1 Langmuir global fit, read-out: dissociation constant Kd
Experimental: Biolayer interferometry (BLI) was used to study the kinetics of dexlansoprazole binding to LEDGF/p75 on a ForteBio Octet, according to the manufacturer’s instructions and published methods. Streptavidin biosensors tips were pre-wetted with buffer and immobilized with biotinylated protein. The biosensors were then transferred into wells containing dexlansoprazole in serial dilutions from 32 μM to 1 μM concentrations. Protein–ligand binding was measured by monitoring the changes in the interferometric profile of the wavelength of light passing through the sensor. Binding curves were analyzed using ForteBIO software, which performs a global fit according to the 1:1 Langmuir model to obtain the kinetic rate constants for each set of interaction conditions.

[5] = target: HIV-1 integrase catalytic core domain (IN CCD), residues 50-212, F185K, C-terminal His6-tag (HIV-1); experiment: ELISA; ELISA-based magnetic bead assay: GST-IBD and His6-CCD mixed in solution (25 mM Tris-HCl pH 7.4, 150 mM NaCl, 1 mM MgCl2, 0.05% BSA, 3 h RT), complex captured on Ni-NTA magnetic agarose beads by the His6-tag, detected with anti-GST antibody and alkaline phosphatase conjugate, absorbance read-out (A405); optimal conditions, ratio 1:1
[6] = target: HIV-1 IN CCD W131E (residues 50-212, F185K, W131E), C-terminal His6-tag (HIV-1); experiment: as above
[7] = at 30 μM for each proton-pump inhibitor, PPI between LEDGF/p75 IBD and IN CCD, read-out: Inhibition (%)
[8] = IN CCD-LEDGF/p75 IBD PPI, magnetic-beads assay, dose response, read-out: IC50

Compound | inhibition at 30 µM [2, 7] | IC50 [2, 8] | other results
Cc1c(OCC(F)(F)F)ccnc1C[S@@+]([O-])c1nc2ccccc2[nH]1 [Dexlansoprazole] | 75.2% | – | anti-cancer activity [1]: poor; IC50 [2]: 4.8 µM; inhibition at 30 µM ([2]; confirmatory screening, triplicate, 30 μM, read-out: inhibitory rate): 90.3%; inhibitory activity against IN CCD-LEDGF/p75 IBD interaction (in words) ([2]; qualitative statement): moderate inhibitory activity; effect on the assay system (counterscreen) [3]: almost had no effect; Kd [4]: 0.33 µM
COc1ccc2nc([S@@+]([O-])Cc3ncc(C)c(OC)c3C)[nH]c2c1 [Esomeprazole] | 22% | > 30 µM | –
Cc1c(OCC(F)(F)F)ccnc1C[S+]([O-])c1nc2ccccc2[nH]1 (centres unmarked) [Lansoprazole] | -86.2% | – | –
COc1ccc2[nH]c([S+]([O-])Cc3ncc(C)c(OC)c3C)nc2c1 (centres unmarked) [Omeprazole] | 26.2% | > 30 µM | –
COc1ccnc(C[S+]([O-])c2nc3ccc(OC(F)F)cc3[nH]2)c1OC (centres unmarked) [Pantoprazole] | -23.9% | – | –
COCCCOc1ccnc(C[S+]([O-])c2nc3ccccc3[nH]2)c1C (centres unmarked) [Rabeprazole] | 14.5% | > 30 µM | –
COc1ccc2[nH]c([S+]([O-])Cc3ncc(C)c(OC)c3C)nc2n1 (centres unmarked) [Tenatoprazole] | 33.6% | > 30 µM | –
LEDGF/p75 IBD D366N (residues 347-471), N-terminal GST-tag (from UniProt O75475 347-471) (domain or fragment) | – | – | A405 signal [5]: < 0.01 A405
LEDGF/p75 integrase binding domain (LEDGF/p75 IBD), residues 347-471, N-terminal GST-tag (from UniProt O75475 347-471) (domain or fragment) | – | – | A405 signal [5]: 0.66 A405; A405 signal [6]: < 0.01 A405
